From ChEMBL document CHEMBL1152873, “Pseurotin A and its analogues as inhibitors of immunoglobulin E [correction of immunoglobuline E] production” (Bioorg Med Chem Lett, 2009) come the findings set out here.

By IC50 is commonly meant the point on the concentration scale where inhibition reaches its midpoint. One may read the inhibition as the drop in the measured response relative to a control, in per cent.

SMILES strings stand for the structures. Active and inactive are the calls of the source. No cut-off for these calls is given here. Where only a bound is given, the exact number is not on record here.

Assay [1] is described as follows: Inhibition of IL4 and LPS-induced IgE production in BALB/c mouse spleen B cell after 6 days by ELISA. The settings on record: 144 h. It counts as functional, tissue-based. (In an ELISA, binding on a coated surface is turned into a signal by an enzyme label.)
Assay [2] in a line: Inhibition of PHA-induced BALB/c mouse T cell proliferation at 10 uM. It counts as cell-based.
The subject of a further assay is K562. The assay can be described thus: Cytotoxicity against human K562 cells. It counts as functional, cell-based.
A short description of assay [3]: Cytotoxicity against BALB/c mouse B cells assessed as cell viability. It counts as cell-based.
For assay [4], the system named is B. The assay can be described thus: Inhibition of IL4 and LPS-induced IgG production in BALB/c mouse spleen B cell after 6 days by ELISA. It counts as functional, tissue-based.
A short description of assay [5]: Selectivity for IgE production in BALB/c mouse spleen B cells over IgM production in BALB/c mouse spleen B cells. It counts as functional.
The nature of assay [6]: Selectivity for IgE production in BALB/c mouse spleen B cells over IgG2a production in BALB/c mouse spleen B cells. It counts as functional.
Assay [7] can be described thus: Selectivity for IgE production in BALB/c mouse spleen B cells over IgG1 production in BALB/c mouse spleen B cells. It counts as functional.
Assay [8] deals with B. The assay can be described thus: Inhibition of IL4 and LPS-induced IgM production in BALB/c mouse spleen B cell after 6 days by ELISA. It counts as functional, tissue-based.
The subject of assay [9] is Lymphocyte. The assay can be described thus: Immunosuppressive activity in rat lymphocytes assessed as inhibition of mixed-lymphocyte reaction. It counts as functional, cell-based.
For assay [10], the system named is Lymphocyte. The assay can be described thus: Immunosuppressive activity in rat lymphocytes assessed as inhibition of mixed-lymphocyte reaction at 10 uM. It counts as functional, cell-based.

In the case of `CNCC1=C(C)C(=O)[C@]2(O1)C(=O)N[C@@](OC)(C(=O)c1ccccc1)[C@@H]2O`, the concentration for half-maximal inhibition (IC50) in assay [1] is more than 10 µM.
Consider `CCCCCC[C@H](O)[C@H](O)C1=C(C)C(=O)[C@]2(O1)C(=O)N[C@@](OC)(C(=O)c1ccccc1)[C@@H]2O`, for which the IC50 in [1] is more than 10 µM.
On to `COC(=O)CC[C@H](O)[C@H](O)C1=C(C)C(=O)[C@]2(O1)C(=O)N[C@@](OC)(C(=O)c1ccccc1)[C@@H]2O`, for which, in assay [1], the IC50 is more than 10 µM.
Molecule `CO[C@@]1(C(=O)c2ccccc2)NC(=O)[C@]2(OC(C=O)=C(C)C2=O)[C@H]1O` registered a half-inhibitory concentration (IC50) in [1] of more than 10 µM.
On the same count and under the same terms, in the case of `CC/C=C\[C@@H]1O[C@H]1C1=C(C)C(=O)[C@]2(O1)C(=O)N[C@@](OC)(C(=O)c1ccccc1)[C@@H]2O` it was more than 10 µM; in that of `CCOC(=O)/C=C/C1=C(C)C(=O)[C@]2(O1)C(=O)N[C@@](OC)(C(=O)c1ccccc1)[C@@H]2O`, more than 10 µM.
In the case of `CC/C=C\[C@H](O)[C@H](O)C1=C(C)C(=O)[C@]2(O1)C(=O)N[C@@](OC)(C(=O)c1ccccc1F)[C@@H]2O`, the IC50 in assay [1] was more than 10 µM.
Regarding `CC/C=C\[C@H](O)[C@H](O)C1=C(C)C(=O)[C@]2(O1)C(=O)N[C@@](OC)(C(=O)c1cccc(F)c1)[C@@H]2O`, in [1], the half-maximal inhibitory concentration (IC50) is more than 10 µM.
On the same count and under the same terms, the result for `CO[C@@]1(C(=O)c2ccccc2)NC(=O)[C@]2(OC(/C=C/C=O)=C(C)C2=O)[C@H]1O` reads more than 10 µM; that for `CO[C@@]1(C(=O)c2ccccc2)NC(=O)[C@]2(OC(/C=C/C#N)=C(C)C2=O)[C@H]1O`, more than 10 µM; that for `COC(=O)/C=C/[C@H](O)[C@H](O)C1=C(C)C(=O)[C@]2(O1)C(=O)N[C@@](OC)(C(=O)c1ccccc1)[C@@H]2O`, more than 10 µM.
Same read-out and setting: the result for `CO[C@@]1(C(=O)c2ccccc2)NC(=O)[C@]2(OC(CNCc3ccccc3)=C(C)C2=O)[C@H]1O` reads more than 10 µM; that for `C=CCNCC1=C(C)C(=O)[C@]2(O1)C(=O)N[C@@](OC)(C(=O)c1ccccc1)[C@@H]2O`, more than 10 µM.
On to `CO[C@@]1(C(=O)c2ccccc2)NC(=O)[C@]2(OC(CN(C)Cc3ccccc3)=C(C)C2=O)[C@H]1O`, for which the IC50 in assay [1] was more than 10 µM.
The same measure, in the same setting: the result for `CC/C=C/[C@H](O)[C@H](O)C1=C(C)C(=O)[C@]2(O1)C(=O)N[C@@](OC)(C(=O)c1ccccc1)[C@@H]2O` reads more than 10 µM; that for `C/C=C/[C@H](O)[C@H](O)C1=C(C)C(=O)[C@]2(O1)C(=O)N[C@@](OC)(C(=O)c1ccccc1)[C@@H]2O`, more than 10 µM.
Molecule `CCOC(=O)/C=C\C1=C(C)C(=O)[C@]2(O1)C(=O)N[C@@](OC)(C(=O)c1ccccc1)[C@@H]2O` returned an IC50 in assay [1] of more than 10 µM.
On the same count and under the same terms, in the case of `CO[C@@]1(C(=O)c2ccccc2)NC(=O)[C@]2(OC([C@@H](O)[C@@H](O)C=C3CCCCC3)=C(C)C2=O)[C@H]1O` it was more than 10 µM.
On the same count and under the same terms, the result for `CCOC(=O)/C(C)=C/C1=C(C)C(=O)[C@]2(O1)C(=O)N[C@@](OC)(C(=O)c1ccccc1)[C@@H]2O` reads more than 10 µM.
Same read-out and setting: the result for `CO[C@@]1(C(=O)c2ccccc2)NC(=O)[C@]2(OC(CO)=C(C)C2=O)[C@H]1O` reads more than 10 µM; that for `CO[C@@]1(C(=O)c2ccccc2)NC(=O)[C@]2(OC(/C=C/C=C/C(C)=O)=C(C)C2=O)[C@H]1O`, more than 10 µM.
Turning to `CCC[C@H](O)[C@H](O)C1=C(C)C(=O)[C@]2(O1)C(=O)N[C@@](OC)(C(=O)c1ccccc1)[C@@H]2O`, the IC50 in [1] was more than 10 µM.
The same measure, in the same setting: in the case of `CC/C=C\[C@H]1OC(C)(C)O[C@@H]1C1=C(C)C(=O)[C@]2(O1)C(=O)N[C@@](OC)(C(=O)c1ccccc1)[C@@H]2O` it was more than 10 µM; in that of `CO[C@@]1(C(=O)c2ccccc2)NC(=O)[C@]2(OC([C@@H](O)[C@@H](O)CCCCc3ccccc3)=C(C)C2=O)[C@H]1O`, more than 10 µM.
For `CCCCNCC1=C(C)C(=O)[C@]2(O1)C(=O)N[C@@](OC)(C(=O)c1ccccc1)[C@@H]2O`, the IC50 was 3.1 µM in assay [1], more than 10 µM with K562 and more than 10 µM in assay [3]. The inhibition at 10 µM in assay [2] was 2%.
Turning to `CO[C@@]1(C(=O)c2ccccc2)NC(=O)[C@]2(OC(CN3CCCCC3)=C(C)C2=O)[C@H]1O`, the IC50 in assay [1] was more than 10 µM.
The same measure, in the same setting: the result for `CO[C@@]1(C(=O)c2ccccc2)NC(=O)[C@]2(OC([C@@H](O)[C@@H](O)/C=C/CCc3ccccc3)=C(C)C2=O)[C@H]1O` reads more than 10 µM.
`CC/C=C\[C@H](O)[C@H](O)C1=C(C)C(=O)[C@]2(O1)[C@@H](OC)N[C@@](OC)(C(=O)c1ccccc1)[C@@H]2O` [6-O-METHOXYPSEUROTIN A] had an IC50 in [1] of more than 10 µM.
Molecule `CC/C=C\[C@H](O)[C@H](O)C1=C(C)C(=O)[C@]2(O1)C(=O)N(C)[C@@](OC)(C(=O)c1ccccc1)[C@@H]2O` [7-N-METHYLPSEUROTIN A] showed an IC50 in [1] of more than 10 µM.
Still for that read-out and setting: in the case of `CC/C=C\[C@H](O)[C@H](O)C1=C(C)C(=O)[C@]2(O1)C(=O)N[C@@](OCC)(C(=O)c1ccccc1)[C@@H]2O` [8-ETHOXYPSEUROTIN A] it was more than 10 µM; in that of `CC/C=C\[C@H](O)[C@H](O)C1=C(C)C(=O)[C@]2(C[C@](OC)(C(=O)c3ccccc3)NC2=O)O1` [9-DEOXYPSEUROTIN A], more than 10 µM.
For `CC/C=C\[C@H](O)CC1=C(C)C(=O)[C@]2(O1)C(=O)N[C@@](OC)(C(=O)c1ccccc1)[C@@H]2O` [10-DEOXYPSEUROTIN A], the IC50 was 0.066 µM in assay [1], more than 10 µM in the assay with K562 and 4.4 µM in assay [3]. The molecule further registered an inhibition at 10 µM in assay [2] of 0%. Further, the result with B [4] and in the assay on B [8] was Active. Besides, the results for the Ratio in [5], in assay [6] and in [7] were 44, 23 and 3.5, respectively.
Molecule `CC/C=C\[C@H](OC)[C@H](O)C1=C(C)C(=O)[C@]2(O1)C(=O)N[C@@](OC)(C(=O)c1ccccc1)[C@@H]2O` [11-O-METHYLPSEUROTIN A] had an IC50 in assay [1] of more than 10 µM.
The same measure, in the same setting: the result for `CCC1CC1[C@H](O)[C@H](O)C1=C(C)C(=O)[C@]2(O1)C(=O)N[C@@](OC)(C(=O)c1ccccc1)[C@@H]2O` (stereo partly specified) [12,13-CYCLOPROPYLPSEUROTIN A] reads more than 10 µM.
As for `CC[C@H](Br)[C@@H](Br)[C@H](O)[C@H](O)C1=C(C)C(=O)[C@]2(O1)C(=O)N[C@@](OC)(C(=O)c1ccccc1)[C@@H]2O` [12,13-DIBROMOPSEUROTIN A], the IC50 in assay [1] was more than 10 µM.
For the molecule `CCCC[C@H](O)[C@H](O)C1=C(C)C(=O)[C@]2(O1)C(=O)N[C@@](OC)(C(=O)c1ccccc1)[C@@H]2O` [12,13-DIHYDROXYPSEUROTIN A], the IC50 in assay [1] was more than 10 µM.
In assay [1], `CCC1OC1[C@H](O)[C@H](O)C1=C(C)C(=O)[C@]2(O1)C(=O)N[C@@](OC)(C(=O)c1ccccc1)[C@@H]2O` (stereo partly specified) [13-EPOXYPSEUROTIN A] gave an IC50 of more than 10 µM.
Still for that read-out and setting: the result for `CC/C=C\[C@H](O)[C@H](O)C1=C(C)C(=O)[C@]2(O1)C(=O)N[C@@](OC)(C(O)c1ccccc1)[C@@H]2O` (stereo partly specified) [17-DIHYDROPSEUROTIN A] reads more than 10 µM.
As to `C[C@]12C=CC(=O)C=C1CC[C@@H]1[C@@H]2[C@@H](O)C[C@@]2(C)[C@H]1CC[C@]2(O)C(=O)CO` [PREDNISOLONE], the concentration for half-maximal inhibition (IC50) is 0.0059 µM in assay [1], 0.078 µM with Lymphocyte [9] and more than 10 µM in [3]. In assay [2], this molecule had an inhibition at 10 µM of 84%. In addition, the Ratio in assay [5] turned out to be 0.4; in assay [6] it was 0.8; in assay [7], 1.
Regarding `CC/C=C\[C@H](O)[C@H](O)C1=C(C)C(=O)[C@]2(O1)C(=O)N[C@@](OC)(C(=O)c1ccccc1)[C@@H]2O` [PSEUROTIN A], the IC50 was 3.6 µM in assay [1], more than 10 µM with Lymphocyte [9], more than 10 µM with K562 and more than 10 µM in assay [3]. In [2], 10 µM produced 0% inhibition. The outcome in the assay on Lymphocyte [10] was inactive.
Regarding `CO[C@@]1(C(=O)c2ccccc2)NC(=O)[C@]2(OC([C@@H](O)[C@@H](O)/C=C/C(C)=O)=C(C)C2=O)[C@H]1O` [PSEUROTIN E], the IC50 in [1] is more than 10 µM.
Same read-out and setting: the result for `CC/C=C\[C@H](O)[C@H](O)C1=C(C)C(=O)[C@]2(O1)C(=O)N[C@@](O)(C(=O)c1ccccc1)[C@@H]2O` [PSEUROTIN F2] reads more than 10 µM.
For `CC/C=C\[C@H]1O[C@@H]1C1=C(C)C(=O)[C@]2(O1)C(=O)N[C@@](OC)(C(=O)c1ccccc1)[C@@H]2O` [SYNERAZOL], the IC50 in assay [1] is 0.26 µM; in the assay on Lymphocyte [9] it was 3.1 µM; in the assay with K562 it was more than 10 µM; in assay [3] it was more than 10 µM. Moreover, the inhibition at 10 µM in assay [2] was found to be 54%.
`CC/C=C\[C@H](OC(C)=O)[C@H](OC(C)=O)C1=C(C)C(=O)[C@]2(O1)C(=O)N(C(C)=O)[C@@](OC)(C(=O)c1ccccc1)[C@@H]2OC(C)=O` [TETRAACETYLPSEUROTIN A]: the IC50 in assay [1] is more than 10 µM.
Take `CC/C=C\[C@H](OC(C)=O)[C@H](OC(C)=O)C1=C(C)C(=O)[C@]2(O1)C(=O)N[C@@](OC)(C(=O)c1ccccc1)[C@@H]2OC(C)=O` [TRIACETYLPSEUROTIN A]: the IC50 in assay [1] was more than 10 µM.
